Where “and” joins values, the source holds several entries; their conditions need not be identical. Equal entries are not always repeated. Entries after “also recorded” stand apart in the source; their conditions may differ.
Assays:
[1] = cited from earlier work; for Label section / Severity class: DILIrank; for Label section: FDA drug label section; for DILIrank: FDA DILIrank category based on clinical data
[2] = peak serum concentration used as dosing reference; source not given; cited from earlier work
[3] = test system: human liver organoids (HLOs); experiment: ALB secretion (Human Albumin ELISA) in the DILI toxicity test on human liver organoids; format: cell-based; conditions: 10*Cmax; for ALB inhibition, significance vs 0*Cmax: liver organoids, Supplementary Fig. 1
Experimental: (§1) All experiments were performed using HLOs derived from a single donor tissue. For each assay, three technical replicates were analyzed, corresponding to three independently cultured wells seeded with organoids. For passage, the following embedding method was used: HLOs were enzymatically or mechanically fragmented (with pre-cold phosphate-buffered saline (PBS)) and reseeded in new Matrigel. Specifically, the pre-cold Matrigel/cell mixture is seeded in 24-well plates at 30 μL/well to enable the formation of dome-shaped structures. Incubation in the cell incubator (37 °C, 5% CO2) for 15 min is required for Matrigel polymerization. After solidification, 500 μL of specific medium is added and later renewed at specific intervals.
(§2) The peak serum concentration (Cmax) can intuitively reflect the actual presence level of a drug in the body’s circulatory system. […] On this basis, we selected 10*Cmax as the reference concentration, taking into account the coefficient of variation in toxicology (individual variability: tenfold). […] Each drug was tested in triplicate. Plates were dosed with the drug for 72 h in each cycle (referred to as Day 0 through Day 3). […] At the end of day 3, the supernatant from each well was collected to determine ALB secretion, and the spheroids from each well were used for the cell viability assay.
The culture supernatants were collected and stored at −80 °C until use. The supernatant was assayed with a Human Albumin ELISA Kit (PROTEINTECH, KE00076). Assays were performed according to the manufacturer’s instructions.

[4] = test system: human liver organoids (HLOs); experiment: Brightfield morphology of dosed human liver organoids; format: cell-based; conditions: 10*Cmax
Text: To explore the suitability of liver models with varying levels of complexity for DILI toxicity testing platforms, we established a single-type cell 3D model (HepG2 spheroid) and a multi-type cell 3D model (liver organoid). Specifically, HepG2 spheroids and HLOs were each exposed to 30 compounds with or without hepatotoxicity. The levels of ALB from the supernatant and cellular activity (ATP) from the spheres were further assessed at the end of Day 3 to validate the reliability of the system (Figs. 2b, d, f and 3b, d, f). […] The brightfield images across different time series and different z-axis orientations were collected daily to generate image data for morphological analysis (Supplementary Figs. 5 and 6).
as §2

[5] = test system: human liver organoids (HLOs); experiment: Cellular viability (ATP, CellTiter-Glo) in the DILI toxicity test on human liver organoids; format: cell-based; conditions: 10*Cmax; for ATP inhibition, significance vs 0*Cmax: liver organoids, Supplementary Fig. 2, peer review file
Experimental: as §1, §2
CellTiter-Glo (CTG, G9681, PROMEGA) reagent and culture medium were added to each well in a 1:1 ratio. The contents were mixed for 2 min to induce cell lysis. The plate was incubated at room temperature for 10 min to stabilize the luminescent signal. Recording of luminescence was carried out with BioTek Microplate Reader Synergy H1 (Vermont, USA).

Question: Which Label section [1] does the source give for `CC(=O)Nc1ccc(O)cc1` [Acetaminophen] here?
Answer: Warnings and precautions

Question: For `CCc1oc2ccccc2c1C(=O)c1cc(Br)c(O)c(Br)c1` [Benzbromarone], which Label section [1] is on record?
Answer: Withdrawn

Question: And the Severity class [1]?
Answer: 8

Question: What about the DILIrank [1] of the same compound?
Answer: vMost-DILI-Concern

Question: And the Cmax [2]?
Answer: 1840 ng/mL

Question: For `COc1ccccc1Oc1c(NS(=O)(=O)c2ccc(C(C)(C)C)cc2)nc(-c2ncccn2)nc1OCCO` [Bosentan], which Label section [1] is on record?
Answer: Box warning

Question: What about the Severity class [1] of the same compound?
Answer: 7

Question: What about the DILIrank [1] of the same compound?
Answer: vMost-DILI-Concern

Question: And the Cmax [2]?
Answer: 2286 ng/mL

Question: Which Label section [1] does the source give for `O=C1CC2(CCCC2)CC(=O)N1CCCCN1CCN(c2ncccn2)CC1` [Buspirone] here?
Answer: Adverse reactions

Question: What about the Severity class [1] of the same compound?
Answer: 3

Question: And the DILIrank [1]?
Answer: Ambiguous DILI-concern

Question: What about the Cmax [2] of the same compound?
Answer: 1.92 ng/mL

Question: For `CN(C)CCC(c1ccc(Cl)cc1)c1ccccn1` (stereo not shown) [Chlorpheniramine], which Label section [1] is on record?
Answer: No match

Question: And the Severity class [1]?
Answer: 0

Question: What about the DILIrank [1] of the same compound?
Answer: vNo-DILI-Concern

Question: And the “DILI level label by DILIrank” value ([1]; label as worded in text and figure legends)?
Answer: No-DILI

Question: And the ALB inhibition ([3]; human liver organoids, end of Day 3 (72 h), individual replicates n = 3, unit from Fig. S1 legend, listed as Chlorphenamine)?
Answer: 1% and 9%

Question: What about the “Brightfield morphology changes of HLOs” value ([4]; Day 0 to Day 3) of the same compound?
Answer: still increased in diameter and developed into a typical translucent hollow sphere with clear boundaries

Question: What about the “Brightfield morphology changes of HLOs” value ([4]; Day 0 to Day 3, listed as Chlorphenamine) of the same compound?
Answer: still grew significantly

Question: What about the Cmax [2] of the same compound?
Answer: 140 ng/mL

Question: What about the ATP inhibition ([5]; human liver organoids, end of Day 3 (72 h), individual replicates n = 3, listed as Chlorphenamine) of the same compound?
Answer: 13% and 9% and -14%

Question: Which Label section [1] does the source give for `Cc1nc(Nc2ncc(C(=O)Nc3c(C)cccc3Cl)s2)cc(N2CCN(CCO)CC2)n1` [Dasatinib] here?
Answer: Adverse reactions

Question: What about the Severity class [1] of the same compound?
Answer: 4

Question: And the DILIrank [1]?
Answer: vLess-DILI-Concern

Question: What about the Cmax [2] of the same compound?
Answer: 129 ng/mL

Question: With `O=C(O)Cc1ccccc1Nc1c(Cl)cccc1Cl` [Diclofenac] as the compound, how does the Label section [1] read?
Answer: Warnings and precautions

Question: And the Severity class [1]?
Answer: 8

Question: What about the DILIrank [1] of the same compound?
Answer: vMost-DILI-Concern

Question: For `C[C@H]1O[C@@H](O[C@H]2[C@@H](O)C[C@H](O[C@H]3[C@@H](O)C[C@H](O[C@H]4CC[C@@]5(C)[C@H](CC[C@@H]6[C@@H]5C[C@@H](O)[C@]5(C)[C@@H](C7=CC(=O)OC7)CC[C@]65O)C4)O[C@@H]3C)O[C@@H]2C)C[C@H](O)[C@@H]1O` [Digoxin], which “ALB inhibition, significance vs 0*Cmax” value [3] is on record?
Answer: significant

Question: What about the Cmax [2] of the same compound?
Answer: 2.21 ng/mL

Question: And the “ATP inhibition, significance vs 0*Cmax” value [5]?
Answer: significant

Question: What does the source list for `CN(C)CCOC(c1ccccc1)c1ccccc1` [Diphenhydramine]?
Answer: Label section [1]: No match; Severity class [1]: 0

Question: For `CCN(CC)C(=O)/C(C#N)=C/c1cc(O)c(O)c([N+](=O)[O-])c1` [Entacapone], which Label section [1] is on record?
Answer: No match

Question: And the Severity class [1]?
Answer: 0

Question: What about the DILIrank [1] of the same compound?
Answer: vLess-DILI-Concern

Question: What about the Cmax [2] of the same compound?
Answer: 1000 ng/mL

Question: For `C#Cc1cccc(Nc2ncnc3cc(OCCOC)c(OCCOC)cc23)c1` [Erlotinib], which Label section [1] is on record?
Answer: Warnings and precautions

Question: And the Severity class [1]?
Answer: 8

Question: And the DILIrank [1]?
Answer: vMost-DILI-Concern

Question: What about the Cmax [2] of the same compound?
Answer: 1200 ng/mL

Question: For `CC(C)C(=O)Nc1ccc([N+](=O)[O-])c(C(F)(F)F)c1` [Flutamine], which Label section [1] is on record?
Answer: Box warning

Question: What about the Severity class [1] of the same compound?
Answer: 8

Question: And the DILIrank [1]?
Answer: vMost-DILI-Concern

Question: What about the Cmax [2] of the same compound?
Answer: 100 ng/mL

Question: For `COc1cc2ncnc(Nc3ccc(F)c(Cl)c3)c2cc1OCCCN1CCOCC1` [Gefitinib], which “Brightfield morphology changes of HLOs” value ([4]; Day 0 to Day 3) is on record?
Answer: underwent cell death, failed to maintain their original spherical structure, and disintegrated by the end of Day 3; also recorded: started to undergo significant cell death and structural disintegration

Question: What about the Cmax [2] of the same compound?
Answer: 200 ng/mL

Question: Which Label section [1] does the source give for `NNC(=O)c1ccncc1` [Isoniazid] here?
Answer: Box warning

Question: What about the Severity class [1] of the same compound?
Answer: 8

Question: And the DILIrank [1]?
Answer: vMost-DILI-Concern

Question: And the “ALB inhibition, significance vs 0*Cmax” value [3]?
Answer: did not show a significant difference

Question: And the Cmax [2]?
Answer: 10500 ng/mL

Question: And the “ATP inhibition, significance vs 0*Cmax” value [5]?
Answer: did not show a significant difference

Question: Which DILIrank [1] does the source give for `C[C@H]1COc2c(N3CCN(C)CC3)c(F)cc3c(=O)c(C(=O)O)cn1c23` [Levofloxacin] here?
Answer: vMost-DILI-Concern

Question: What about the Cmax [2] of the same compound?
Answer: 5700 ng/mL

Question: For `CCN(CC)CC(=O)Nc1c(C)cccc1C` [Lidocaine], which Label section [1] is on record?
Answer: No match

Question: What about the Severity class [1] of the same compound?
Answer: 0

Question: What does the source list for `CN(Cc1cnc2nc(N)nc(N)c2n1)c1ccc(C(=O)N[C@@H](CCC(=O)O)C(=O)O)cc1` [Methotrexate]?
Answer: Label section [1]: Box warning; Severity class [1]: 3; DILIrank [1]: vMost-DILI-Concern; Cmax [2]: 351 ng/mL

Question: For `CCc1nn(CCCN2CCN(c3cccc(Cl)c3)CC2)c(=O)n1CCOc1ccccc1` [Nefazodone], which Label section [1] is on record?
Answer: Box warning

Question: And the Severity class [1]?
Answer: 8

Question: And the DILIrank [1]?
Answer: vMost-DILI-Concern

Question: And the Cmax [2]?
Answer: 434.9 ng/mL

Question: With `CS(=O)(=O)Nc1ccc([N+](=O)[O-])cc1Oc1ccccc1` [Nimesulide] as the compound, how does the Label section [1] read?
Answer: Withdrawn

Question: And the Severity class [1]?
Answer: 8

Question: What about the DILIrank [1] of the same compound?
Answer: vMost-DILI-Concern

Question: What about the Cmax [2] of the same compound?
Answer: 6500 ng/mL

Question: For `CC(=O)O[C@H]1C(=O)[C@@]2(C)[C@H]([C@H](OC(=O)c3ccccc3)[C@]3(O)C[C@H](OC(=O)[C@H](O)[C@@H](NC(=O)c4ccccc4)c4ccccc4)C(C)=C1C3(C)C)[C@]1(OC(C)=O)CO[C@@H]1C[C@@H]2O` [Paclitaxel], which Label section [1] is on record?
Answer: Adverse reactions

Question: What about the Severity class [1] of the same compound?
Answer: 4

Question: What about the DILIrank [1] of the same compound?
Answer: vLess-DILI-Concern

Question: And the Cmax [2]?
Answer: 600 ng/mL

Question: For `CCc1ccc(CCOc2ccc(CC3SC(=O)NC3=O)cc2)nc1` (stereo not shown) [Pioglitazone], which Label section [1] is on record?
Answer: Warnings and precautions

Question: And the Severity class [1]?
Answer: 3

Question: What about the DILIrank [1] of the same compound?
Answer: vLess-DILI-Concern

Question: And the Cmax [2]?
Answer: 1050 ng/mL

Question: What does the source list for `Cc1cn([C@H]2C=C[C@@H](CO)O2)c(=O)[nH]c1=O` [Stavudine]?
Answer: Label section [1]: Box warning; Severity class [1]: 8; DILIrank [1]: vMost-DILI-Concern; Cmax [2]: 776.4 ng/mL

Question: Which Label section [1] does the source give for `Cc1ccc(C(=O)c2cc(O)c(O)c([N+](=O)[O-])c2)cc1` [Tolcapone] here?
Answer: Box warning (withdrawn)

Question: What about the Severity class [1] of the same compound?
Answer: 8

Question: What about the DILIrank [1] of the same compound?
Answer: vMost-DILI-Concern

Question: What about the Cmax [2] of the same compound?
Answer: 13000 ng/mL

Question: What does the source list for `Cc1c(C)c2c(c(C)c1O)CCC(C)(COc1ccc(CC3SC(=O)NC3=O)cc1)O2` (stereo not shown) [Troglitazone]?
Answer: Label section [1]: Withdrawn; Severity class [1]: 8; DILIrank [1]: vMost-DILI-Concern; Cmax [2]: 2820 ng/mL

Question: For `CC[C@]1(O)C[C@@H]2CN(CCc3c([nH]c4ccccc34)[C@@](C(=O)OC)(c3cc4c(cc3OC)N(C)[C@H]3[C@@](O)(C(=O)OC)[C@H](OC(C)=O)[C@]5(CC)C=CCN6CC[C@]43[C@@H]65)C2)C1` [Vinblastine], which “ALB inhibition, significance vs 0*Cmax” value [3] is on record?
Answer: significant

Question: What about the Cmax [2] of the same compound?
Answer: 28 ng/mL

Question: What about the “ATP inhibition, significance vs 0*Cmax” value [5] of the same compound?
Answer: significant

Question: For `CC(c1cc2ccccc2s1)N(O)C(N)=O` (stereo not shown) [Zileuton], which Label section [1] is on record?
Answer: Warnings and precautions

Question: What about the Severity class [1] of the same compound?
Answer: 5

Question: And the DILIrank [1]?
Answer: vMost-DILI-Concern

Question: And the Cmax [2]?
Answer: 3100 ng/mL
